The test system of experiment [1] is glucagon levels in hepatic portal blood. In words: Glucagon levels in hepatic portal blood of fasted rats (RIA). The format is in vivo, rat. The procedure:
(§1) In this evaluation the procedures described by W. A. Murphy et al. Endocrinology 109:491-495 (1980), were employed.
(§2) For measurement of effects on insulin and glucagon levels, rats were fasted 27-30 hours and anesthetized with NEMBUTAL® (5 mg per 100 g body wt). Exactly 21 minutes after NEMBUTAL® injection 0.5 mL of saline or saline containing test peptide was injected into the jugular vein over a 1 minute period. Five minutes later, 3.5 mL of blood were quickly drawn from the hepatic portal vein after rapid laparotomy. Blocking effects of analog on exogenous somatostatin were examined by simultaneous injection of both peptides. Plasma insulin levels were determined using matched insulin RIA kits purchased from Cambridge Nuclear, Billerica, MA. Plasma glucagon was determined using Unger 30K antibody and ^125 I-glucagon (Cambridge Nuclear) as the tracer.

Another experiment relates to GH levels in the rat. Briefly: Growth hormone (GH) levels in NEMBUTAL-anesthetized, stimulated rats (RIA). The format is in vivo. The settings on record: mean ± SE. The procedure:
as §1
In growth hormone (GH) experiments, male rats (Charles Rivers) were anesthetized with NEMBUTAL® (5 mg per 100 g/BW) which also served to maintain stimulated plasma GH levels. Exactly 30 minutes after the rats were anesthetized, 0.5 mL of saline or the test peptide in saline was administered as a sc bolus. A 1 mL blood sample was drawn from the jugular vein 15 minutes after the injection. For examining blocking effects of the analog on somatostatin, the cyclic peptide was given 5 minutes prior to somatostatin. GH levels were determined using NIADDKD rat GH RIA components.

In experiment [2] the test system is insulin levels in hepatic portal blood. In words: Insulin levels in hepatic portal blood of fasted rats (RIA). Format: in vivo, rat. The procedure: as §1, §2

As to `C[C@H](N)C(=O)NCC(=O)N[C@H]1CSSC[C@@H](C(=O)O)NC(=O)[C@H](CO)NC(=O)[C@H]([C@@H](C)O)NC(=O)[C@H](Cc2ccccc2)NC(=O)[C@H]([C@@H](C)O)NC(=O)[C@H](CCCCN)NC(=O)[C@H](Cc2c[nH]c3ccccc23)NC(=O)[C@H](Cc2ccccc2)NC(=O)[C@H](Cc2ccccc2)NC(=O)[C@H](CC(N)=O)NC(=O)[C@H](CCCCN)NC1=O` [Somatostatin], the “Glucagon (Mean ± SE)” value is 64 ± 3 pg/mL in experiment [1] (Table III Experiment 1, fasted rats, 0.4 μg/100 g iv, portal blood 5 min later, saline 80 ± 5); 46 ± 4 pg/mL in experiment [1] (Table III Experiment 1, fasted rats, 2.0 μg/100 g iv, saline 80 ± 5); 78 ± 7 pg/mL in experiment [1] (Table III Experiment 1, second saline set, fasted rats, 1.0 μg/100 g iv, saline 94 ± 9); 18 ± 7 pg/mL in experiment [1] (Table III Experiment 2, fasted rats, 1.0 μg/100 g iv, saline 45 ± 3). Further, the GH in the experiment on GH levels in the rat (Table I Experiment 1, fed rats, 0.2 μg/100 g body weight sc, blood 15 min after injection, saline 277 ± 40) is 146 ± 14 ng/mL; with GH levels in the rat (Table I Experiment 1, fed rats, 0.6 μg/100 g body weight sc, blood 15 min after injection, saline 277 ± 40), 78 ± 26 ng/mL; in the experiment with GH levels in the rat (Table I Experiment 2, fasted rats, 0.4 μg/100 g body weight, saline 403 ± 85), 107 ± 13 ng/mL. Also, the “Insulin (Mean ± SE)” value worked out at 57 ± 3 μU/mL in experiment [2] (Table III Experiment 1, fasted rats, 0.4 μg/100 g iv, portal blood 5 min later, saline 67 ± 11); 28 ± 11 μU/mL in experiment [2] (Table III Experiment 1, fasted rats, 2.0 μg/100 g iv, saline 67 ± 11); 11 ± 2 μU/mL in experiment [2] (Table III Experiment 1, second saline set, fasted rats, 1.0 μg/100 g iv, saline 46 ± 5).

These data come from patent US4508711A, “Cyclic pentapeptide displaying somatostatin antagonism and method of treatment of mammals therewith” (American Cyanamid Company, priority 1984, dated 1985).
